From US8999974B2, “Acyl piperazine derivatives as TTX-S blockers” (Raqualia Pharma Inc., priority 2010, dated 2015)

Experiments:
[1] = target: T1, human Nav1.7 (Homo sapiens, UniProt Q15858); assay: FRET assay (EFS, FDSS) on CHO cells expressing human NaV1.7 channels; format: cell-based; details: FRET assay, CHO cells expressing human NaV1.7; read-out: IC50 against Nav1.7
T1 construct: expressed in transfected cells; host or cells: CHO
Protocol: This screen was used to determine the effects of compounds on human NaV1.3, human Nav1.7, and human Nav1.5 channels, utilising electrical field stimulation (EFS) system in 96-well plate format on FDSS (Hamamatsu Photonics) platform. The change of membrane potential was monitored with FRET dye pair, oxonol (DiSBAC2(3)) and coumarin (CC2-DMPE).
CHO cells expressing human NaV1.7 channels were grown in T225 flasks, in a 5% CO2 humidified incubator to about 80% confluence. Media composition consisted of HAM/F12 with Glutamax I, 10% FCS, 100 units/ml Penicillin and 100 microgram/ml Hygromycin.
Protocol: • Seeded each cell lines (1×10^5 cells/well) into poly-D-lysine coated 96-well plates prior to experimentation. • Incubated at 37° C. in 5% CO2 for 24 hours. • Washed each well with assay buffer (140 mM NaCl, 4.5 mM KCl, 10 mM D-Glucose, 2 mM CaCl2, 1 mM MgCl2, 10 mM HEPES, pH 7.4 adjusted with NaOH) twice. • Added 1st loading solution containing 10 microM CC2-DMPE and 0.06% Pluronic F-127 in assay buffer. • Incubated the plate at room temperature in dark for 1 hour. • Removed 1st loading solution and added 2nd loading solution containing 15 microM DiSBAC2(3), 0.555 mM VABSC-1 and 0.004% Pluronic F-127 in assay buffer. • Placed the plate under the dark at room temperature for 25 minutes. • Added compound solutions into the assay plate. • Set the assay plate in FDSS and placed an EFS device on the plate. • Measured EFS-induced fluorescent response by FDSS.
The data were analyzed and reported as normalized ratios of intensities measured at […]. The process of calculating these ratios was performed as follows:
[formula] This analysis was performed using a computerized specific program designed for FDSS generated data. Fluorescence ratio values were plotted using XLfit to determine an IC50 value for each compound.

[2] = target: T2, human NaV1.3 (Homo sapiens, UniProt Q9NY46); assay: FRET assay (EFS, FDSS) on HEK293 cells expressing human NaV1.3 channels; format: cell-based; details: FRET assay, HEK293 cells expressing human NaV1.3; read-out: IC50 against Nav1.3
T2 construct: expressed in transfected cells; host or cells: HEK293
T2 sequence (Q9NY46 whole entry): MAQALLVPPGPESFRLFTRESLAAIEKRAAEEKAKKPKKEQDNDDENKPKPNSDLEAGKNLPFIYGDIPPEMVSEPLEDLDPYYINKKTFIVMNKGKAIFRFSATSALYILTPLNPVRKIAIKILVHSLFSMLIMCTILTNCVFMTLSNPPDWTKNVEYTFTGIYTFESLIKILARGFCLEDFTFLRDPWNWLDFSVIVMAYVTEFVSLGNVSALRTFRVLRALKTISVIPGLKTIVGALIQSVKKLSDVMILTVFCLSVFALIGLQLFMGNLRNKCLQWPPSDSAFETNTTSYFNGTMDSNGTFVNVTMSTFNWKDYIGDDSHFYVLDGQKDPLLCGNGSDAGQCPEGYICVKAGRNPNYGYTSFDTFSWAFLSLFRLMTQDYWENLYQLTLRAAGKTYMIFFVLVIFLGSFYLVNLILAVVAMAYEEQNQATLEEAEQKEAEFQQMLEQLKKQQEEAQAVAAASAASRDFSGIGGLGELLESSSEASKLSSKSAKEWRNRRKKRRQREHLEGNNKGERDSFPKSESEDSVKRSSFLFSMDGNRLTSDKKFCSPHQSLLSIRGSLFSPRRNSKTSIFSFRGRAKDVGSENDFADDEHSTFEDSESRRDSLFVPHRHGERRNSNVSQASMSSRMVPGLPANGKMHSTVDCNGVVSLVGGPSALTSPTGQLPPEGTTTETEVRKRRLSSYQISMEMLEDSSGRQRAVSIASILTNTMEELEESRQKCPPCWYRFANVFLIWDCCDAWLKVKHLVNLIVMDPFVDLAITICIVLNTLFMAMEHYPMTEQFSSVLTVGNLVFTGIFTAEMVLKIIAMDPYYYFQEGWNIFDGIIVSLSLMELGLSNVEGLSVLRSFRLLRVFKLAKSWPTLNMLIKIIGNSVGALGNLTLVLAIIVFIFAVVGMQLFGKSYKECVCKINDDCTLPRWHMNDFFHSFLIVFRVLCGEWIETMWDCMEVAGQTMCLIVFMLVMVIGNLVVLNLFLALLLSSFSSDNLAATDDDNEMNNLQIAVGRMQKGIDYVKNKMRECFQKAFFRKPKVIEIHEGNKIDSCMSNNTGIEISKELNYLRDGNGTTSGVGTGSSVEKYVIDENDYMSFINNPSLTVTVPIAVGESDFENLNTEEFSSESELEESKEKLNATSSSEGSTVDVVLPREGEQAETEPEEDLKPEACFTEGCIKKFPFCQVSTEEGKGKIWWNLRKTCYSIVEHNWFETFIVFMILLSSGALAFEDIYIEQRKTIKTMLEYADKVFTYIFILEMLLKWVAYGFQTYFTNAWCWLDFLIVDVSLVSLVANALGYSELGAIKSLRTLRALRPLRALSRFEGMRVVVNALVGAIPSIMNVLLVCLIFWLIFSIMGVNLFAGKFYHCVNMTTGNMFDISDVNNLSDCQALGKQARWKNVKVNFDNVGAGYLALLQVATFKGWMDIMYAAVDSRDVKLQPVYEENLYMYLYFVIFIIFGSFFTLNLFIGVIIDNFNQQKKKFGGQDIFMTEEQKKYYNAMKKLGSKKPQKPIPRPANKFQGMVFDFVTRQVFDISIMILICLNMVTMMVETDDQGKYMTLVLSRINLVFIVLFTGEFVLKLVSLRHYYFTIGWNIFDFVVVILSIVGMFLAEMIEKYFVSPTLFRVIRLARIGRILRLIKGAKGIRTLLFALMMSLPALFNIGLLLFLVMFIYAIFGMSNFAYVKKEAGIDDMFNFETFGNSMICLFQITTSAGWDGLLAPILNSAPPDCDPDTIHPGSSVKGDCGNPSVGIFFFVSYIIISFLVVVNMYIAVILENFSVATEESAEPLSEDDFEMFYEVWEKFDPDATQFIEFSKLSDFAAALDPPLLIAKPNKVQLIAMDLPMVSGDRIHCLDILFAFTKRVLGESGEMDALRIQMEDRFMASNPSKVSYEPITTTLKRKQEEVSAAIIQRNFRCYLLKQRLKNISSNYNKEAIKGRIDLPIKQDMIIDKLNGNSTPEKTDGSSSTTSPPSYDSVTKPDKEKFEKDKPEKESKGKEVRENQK
Summary of the method: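 Membrane potential in HEK293 cells stably expressing human NaV1.3, read by FRET (CC2-DMPE 10 µM / DiSBAC2(3) 15 µM with 0.555 mM VABSC-1) after electrical field stimulation, in HEPES-buffered saline pH 7.4. Compounds added after dye loading at room temperature. IC50 from normalized 440 nm fluorescence ratios.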

T1 sequence (Q15858 whole entry): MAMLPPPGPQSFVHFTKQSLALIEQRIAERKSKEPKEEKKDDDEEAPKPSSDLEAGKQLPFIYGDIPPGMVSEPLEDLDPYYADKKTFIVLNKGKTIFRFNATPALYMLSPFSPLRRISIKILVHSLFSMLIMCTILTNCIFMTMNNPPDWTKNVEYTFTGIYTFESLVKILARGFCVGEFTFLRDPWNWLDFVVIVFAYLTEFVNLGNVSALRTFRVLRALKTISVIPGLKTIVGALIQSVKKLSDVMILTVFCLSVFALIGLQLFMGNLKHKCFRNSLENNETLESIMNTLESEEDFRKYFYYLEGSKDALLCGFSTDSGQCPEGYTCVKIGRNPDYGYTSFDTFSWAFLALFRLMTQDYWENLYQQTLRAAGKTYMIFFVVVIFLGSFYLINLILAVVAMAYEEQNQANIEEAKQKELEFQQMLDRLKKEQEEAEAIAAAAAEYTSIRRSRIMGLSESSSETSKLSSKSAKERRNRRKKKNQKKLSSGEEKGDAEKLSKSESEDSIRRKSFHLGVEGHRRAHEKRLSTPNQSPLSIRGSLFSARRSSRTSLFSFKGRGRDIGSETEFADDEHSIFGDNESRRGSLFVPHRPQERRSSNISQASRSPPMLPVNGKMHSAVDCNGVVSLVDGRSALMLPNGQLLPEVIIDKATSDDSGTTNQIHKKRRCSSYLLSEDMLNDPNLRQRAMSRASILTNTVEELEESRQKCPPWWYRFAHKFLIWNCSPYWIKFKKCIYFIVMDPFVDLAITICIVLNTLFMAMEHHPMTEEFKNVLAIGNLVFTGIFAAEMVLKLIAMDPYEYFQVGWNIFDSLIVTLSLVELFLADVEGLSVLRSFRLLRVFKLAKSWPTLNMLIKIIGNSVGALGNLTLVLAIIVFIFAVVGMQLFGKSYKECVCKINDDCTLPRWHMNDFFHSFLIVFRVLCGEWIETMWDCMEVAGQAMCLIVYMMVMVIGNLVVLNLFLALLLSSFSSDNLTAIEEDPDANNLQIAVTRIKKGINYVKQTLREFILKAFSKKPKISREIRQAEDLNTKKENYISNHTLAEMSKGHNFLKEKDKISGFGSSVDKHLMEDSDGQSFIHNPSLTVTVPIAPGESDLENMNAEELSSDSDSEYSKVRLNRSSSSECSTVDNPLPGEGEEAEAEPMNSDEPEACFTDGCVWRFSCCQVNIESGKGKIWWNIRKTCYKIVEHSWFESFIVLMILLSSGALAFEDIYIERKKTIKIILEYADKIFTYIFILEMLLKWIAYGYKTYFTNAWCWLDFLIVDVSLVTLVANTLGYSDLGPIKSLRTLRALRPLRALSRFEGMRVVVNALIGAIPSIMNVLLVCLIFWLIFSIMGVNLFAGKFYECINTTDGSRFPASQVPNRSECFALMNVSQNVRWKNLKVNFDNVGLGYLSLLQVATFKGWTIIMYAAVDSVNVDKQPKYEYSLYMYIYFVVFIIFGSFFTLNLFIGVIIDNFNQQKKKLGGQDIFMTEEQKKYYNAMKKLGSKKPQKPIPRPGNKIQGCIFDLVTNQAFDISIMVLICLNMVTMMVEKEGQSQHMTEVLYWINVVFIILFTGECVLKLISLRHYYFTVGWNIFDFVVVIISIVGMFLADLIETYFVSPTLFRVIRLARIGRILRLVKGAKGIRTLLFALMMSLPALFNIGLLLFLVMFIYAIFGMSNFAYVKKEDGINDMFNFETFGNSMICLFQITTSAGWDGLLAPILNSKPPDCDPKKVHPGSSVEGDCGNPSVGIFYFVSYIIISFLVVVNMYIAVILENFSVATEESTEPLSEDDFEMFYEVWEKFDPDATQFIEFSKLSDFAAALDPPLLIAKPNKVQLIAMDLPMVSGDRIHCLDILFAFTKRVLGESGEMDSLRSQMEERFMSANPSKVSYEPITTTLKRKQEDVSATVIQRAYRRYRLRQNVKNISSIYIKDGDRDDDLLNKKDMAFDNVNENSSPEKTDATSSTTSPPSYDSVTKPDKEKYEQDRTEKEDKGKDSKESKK

| SMILES | IC50 [1] [µM] | IC50 [2] [µM] |
| --- | --- | --- |
| O=C(Cn1nc2ccccc2n1)N1CCN(c2cc(OCC(F)(F)F)ncn2)CC1 [Example 146, 2-(2H-benzo[d][1,2,3]triazol-2-yl)-1-(4-(6-(2,2,2-trifluoroethoxy)pyrimidin-4-yl)piperazin-1-yl)ethanone] | < 3 | < 3 |
| CC(C)Oc1cc(N2CCN(C(=O)c3csc(-c4ccccc4)n3)CC2)ncn1 [Example 165, (4-(6-isopropoxypyrimidin-4-yl)piperazin-1-yl)(2-phenylthiazol-4-yl)methanone] | < 3 | < 3 |
| CC(C)COc1cc(N2CCN(C(=O)c3csc(Cc4ccccc4)n3)CC2)ncn1 [Example 167, (2-benzylthiazol-4-yl)(4-(6-isobutoxypyrimidin-4-yl)piperazin-1-yl)methanone] | < 3 | < 3 |
| CC(C)COc1cc(N2CCN(C(=O)COCc3ccc(F)cc3)CC2)ncn1 [Example 168, 2-((4-fluorobenzyl)oxy)-1-(4-(6-isobutoxypyrimidin-4-yl)piperazin-1-yl)ethanone] | < 3 | < 3 |
| Cc1c(C(=O)N2CCN(c3cc(OCC(C)C)ncn3)CC2)cnn1-c1ccc(F)cc1 [Example 169, (1-(4-fluorophenyl)-5-methyl-1H-pyrazol-4-yl)(4-(6-isobutoxypyrimidin-4-yl)piperazin-1-yl)methanone] | < 3 | < 3 |
| Cc1nc(-c2cccc(C(=O)N3CCN(c4cc(OCC(C)C)ncn4)CC3)c2)cs1 [Example 187, (4-(6-isobutoxypyrimidin-4-yl)piperazin-1-yl)(3-(2-methylthiazol-4-yl)phenyl)methanone] | < 3 | < 3 |
| Cc1nc(-c2ccccc2)oc1C(=O)N1CCN(c2cc(OCC(C)C)ncn2)CC1 [Example 208, (4-(6-isobutoxypyrimidin-4-yl)piperazin-1-yl)(4-methyl-2-phenyloxazol-5-yl)methanone] | < 3 | < 3 |
| Cn1nc(C(=O)N2CCN(c3cc(OCC(F)(F)F)ncn3)CC2)c2cc(F)ccc21 [Example 212, (5-fluoro-1-methyl-1H-indazol-3-yl)(4-(6-(2,2,2-trifluoroethoxy)pyrimidin-4-yl)piperazin-1-yl)methanone] | < 3 | < 3 |
| CC(C)COc1cc(N2CCN(C(=O)c3csc(-c4ccccc4)n3)CC2)ncn1 [Example 213, (4-(6-isobutoxypyrimidin-4-yl)piperazin-1-yl)(2-phenylthiazol-4-yl)methanone] | < 3 | < 3 |
| CCn1nc(C(=O)N2CCN(c3cc(OCC(F)(F)F)ncn3)CC2)cc1C(F)(F)F [Example 229, (1-ethyl-5-(trifluoromethyl)-1H-pyrazol-3-yl)(4-(6-(2,2,2-trifluoroethoxy)pyrimidin-4-yl)piperazin-1-yl)methanone] | < 3 | < 3 |
| O=C(c1csc(-c2ccccn2)n1)N1CCN(c2cc(OCC(F)(F)F)ncn2)CC1 [Example 244, (2-(pyridin-2-yl)thiazol-4-yl)(4-(6-(2,2,2-trifluoroethoxy)pyrimidin-4-yl)piperazin-1-yl)methanone] | < 3 | < 3 |
